According to patent US10336803B2, “Insulin secreting polypeptides” (Mayo Foundation for Medical Education and Research, priority 2013, dated 2019):
No end group written: not given here.

What was measured:
diabetic rats = test: Chronic CRRL-094 ISP-NP subcutaneous pump treatment of diabetic rats; assay type: in vivo, male Wistar rats; conditions: ALZET pumps subcutaneously 1 pmol/kg/minute
Excerpt: Three groups of male Wistar rats were used: (1) normal non-diabetic control rats, (2) diabetic control rats, and (3) diabetic rats treated with CRRL-094 ISP-NP. Two months after induction of diabetes, ALZET pumps (obtained from DURECT Corporation, ALZET Osmotic Pumps, P.O. Box 530, Cupertino, Calif.; Model 1007D) filled with CRRL-094 ISP-NP in saline (dose=1 pmol/kg/minute) or saline as control were serially implanted subcutaneously every 14 days over the course of one month. After four weeks of treatment, blood glucose levels, plasma insulin levels, body weight, plasma and urine cGMP levels, and left ventricular hypertrophy were measured. Blood glucose levels and body weight also were measured after two weeks of treatment.

[1] = target: T1, GC-B particulate guanylate cyclase receptors (Homo sapiens, UniProt P20594); test: Cell cGMP assay in HEK293 cells stably transfected with GC-B; assay type: cell-based; conditions: 10^−10 M, 10^−8M, or 10^−6M polypeptide for 10 minutes (FIGS. 14, 15)
T1 construct: expressed in transfected cells; host or cells: HEK293
T1 sequence (P20594 23-1047): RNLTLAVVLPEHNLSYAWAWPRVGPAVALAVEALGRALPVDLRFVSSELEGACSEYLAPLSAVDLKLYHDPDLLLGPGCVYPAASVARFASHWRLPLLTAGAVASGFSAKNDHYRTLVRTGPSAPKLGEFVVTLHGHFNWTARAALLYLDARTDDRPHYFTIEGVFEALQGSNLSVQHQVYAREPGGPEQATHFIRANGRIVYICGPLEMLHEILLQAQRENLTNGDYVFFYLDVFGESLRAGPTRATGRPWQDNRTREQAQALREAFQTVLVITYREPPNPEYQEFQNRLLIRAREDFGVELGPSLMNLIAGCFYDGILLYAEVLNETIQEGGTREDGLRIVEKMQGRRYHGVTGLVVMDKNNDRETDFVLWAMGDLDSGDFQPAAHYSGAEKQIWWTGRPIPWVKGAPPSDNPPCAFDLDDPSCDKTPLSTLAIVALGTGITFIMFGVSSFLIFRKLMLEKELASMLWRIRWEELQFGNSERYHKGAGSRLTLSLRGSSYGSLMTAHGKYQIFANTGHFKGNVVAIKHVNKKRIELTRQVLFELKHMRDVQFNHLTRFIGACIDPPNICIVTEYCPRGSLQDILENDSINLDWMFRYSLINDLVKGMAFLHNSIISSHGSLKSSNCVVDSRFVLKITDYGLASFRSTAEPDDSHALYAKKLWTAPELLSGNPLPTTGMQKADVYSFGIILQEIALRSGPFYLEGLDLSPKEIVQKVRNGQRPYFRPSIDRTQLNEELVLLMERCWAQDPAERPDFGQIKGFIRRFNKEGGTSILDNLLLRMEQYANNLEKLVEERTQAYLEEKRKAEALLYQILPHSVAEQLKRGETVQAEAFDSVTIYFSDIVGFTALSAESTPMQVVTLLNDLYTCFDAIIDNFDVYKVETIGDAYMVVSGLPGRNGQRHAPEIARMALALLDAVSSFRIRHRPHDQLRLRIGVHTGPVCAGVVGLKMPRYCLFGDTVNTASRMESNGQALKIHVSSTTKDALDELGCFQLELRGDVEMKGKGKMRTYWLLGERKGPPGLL

normal dogs = test: Chimeric polypeptide intravenous infusion in normal dogs: blood glucose, plasma insulin, plasma cGMP; assay type: in vivo, dog; conditions: normal dogs (n=2), intravenous infusion 10 or 100 pmol/kg/minute for 45 minutes; for plasma insulin: versus base line (FIG. 7); for plasma glucose: versus base line (FIG. 8); for plasma cGMP: versus base line (FIG. 9)
[2] = target: T2, GC-A particulate guanylate cyclase receptors (Homo sapiens, UniProt P16066); test: Cell cGMP assay in HEK293 cells stably transfected with GC-A; assay type: cell-based; conditions: 10^−10 M, 10^−8M, or 10^−6M polypeptide for 10 minutes (FIGS. 14, 15)
T2 construct: expressed in transfected cells; host or cells: HEK293
T2 sequence (P16066 33-1061): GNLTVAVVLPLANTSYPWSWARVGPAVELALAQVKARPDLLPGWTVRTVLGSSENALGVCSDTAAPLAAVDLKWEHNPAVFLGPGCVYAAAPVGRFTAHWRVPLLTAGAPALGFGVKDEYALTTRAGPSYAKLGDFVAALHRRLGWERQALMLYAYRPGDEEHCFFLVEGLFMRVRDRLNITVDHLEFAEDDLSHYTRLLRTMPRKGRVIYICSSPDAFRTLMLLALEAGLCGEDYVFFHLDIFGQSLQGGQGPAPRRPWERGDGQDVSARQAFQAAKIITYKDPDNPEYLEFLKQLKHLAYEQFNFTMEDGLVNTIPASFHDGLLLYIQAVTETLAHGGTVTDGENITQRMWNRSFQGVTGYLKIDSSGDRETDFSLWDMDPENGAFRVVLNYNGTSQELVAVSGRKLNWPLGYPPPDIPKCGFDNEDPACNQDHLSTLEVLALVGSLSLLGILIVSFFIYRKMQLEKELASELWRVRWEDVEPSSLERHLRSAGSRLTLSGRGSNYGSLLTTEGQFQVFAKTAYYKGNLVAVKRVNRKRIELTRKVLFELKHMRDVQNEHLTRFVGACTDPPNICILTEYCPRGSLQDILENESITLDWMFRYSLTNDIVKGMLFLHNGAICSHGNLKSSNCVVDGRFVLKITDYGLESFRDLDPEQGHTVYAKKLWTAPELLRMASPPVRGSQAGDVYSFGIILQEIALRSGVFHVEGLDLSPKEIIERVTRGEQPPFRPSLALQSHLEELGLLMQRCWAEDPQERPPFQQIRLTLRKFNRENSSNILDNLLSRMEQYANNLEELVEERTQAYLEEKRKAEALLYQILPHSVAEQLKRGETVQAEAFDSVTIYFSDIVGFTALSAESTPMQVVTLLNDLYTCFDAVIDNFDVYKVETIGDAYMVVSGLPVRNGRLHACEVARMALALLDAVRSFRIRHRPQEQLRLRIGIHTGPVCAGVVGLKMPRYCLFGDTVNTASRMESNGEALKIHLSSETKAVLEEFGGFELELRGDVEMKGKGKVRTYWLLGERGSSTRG

[3] = system: diabetic rats (streptozotocin); test: CRRL-090 ISP chronic subcutaneous pump treatment of streptozotocin diabetic rats; assay type: in vivo, male Wistar rats
Procedure: CRRL-090 ISP was synthesized by direct protein synthesis and tested for biological activity in diabetic rats as follows. Three groups of male Wistar rats (six rats per group) were used: normal control group, diabetic control group, and diabetic group treated with CRRL-090 ISP. One dose of streptozotocin was administered intraperitoneally to induce diabetes in the rats of the diabetic control group and diabetic group treated with CRRL-090 ISP. Two months after induction of diabetes, ALZET pumps (obtained from DURECT Corporation, ALZET Osmotic Pumps, P.O. Box 530, Cupertino, Calif.; Model 1007D) configured to release 0.1 μg/kg/minute of CRRL-090 ISP or saline as control were serially implanted subcutaneously every 14 days over the course of one month (2 pumps, one on day 0 and another on day 14). Cardiac function was assessed by echocardiography, neurohormones were measured by radioimmunoassays. Fibrosis was determined by picrosirius red staining.

normal rats [4] = test: CRRL-090 ISP intravenous infusion in normal rats: blood glucose and plasma insulin; assay type: in vivo, rat; conditions: 1 pmol/kg/minute for 210 minutes intravenous infusion
Procedure: CRRL-090 ISP was synthesized by direct protein synthesis and tested for biological activity in normal rats as follows. Two groups of normal rats were used. The first group included five normal rats, which were administered normal saline. The second group included seven normal rats, which were administered CRRL-090 (1 pmol/kg/minute for 210 minutes). Both administrations were via intravenous infusion.

normal rats [5] = test: Chimeric polypeptide infusion in normal rats: blood glucose and plasma insulin; assay type: in vivo, rat; conditions: IV infusion 1 pmol/kg/minute for 210 minutes
[6] = after four weeks, compared to diabetic rats treated with saline (FIG. 19)

**Q.** For “HGEGT-FTSDSEAFIWLGRRMDRIGLSKGCFGLKLDRIGSMSGLGCKVLRRH (HGEGTFTSDSEAFIWLGRRMDRIGLSKGCFGLKLDRIGSMSGLGCKVLRRH) [CRRL-094 ISP-NP]”, which plasma insulin (diabetic rats; after four weeks, compared to diabetic rats treated with saline (FIG. 17)) is on record?
**A.** increased plasma insulin

**Q.** What about the “plasma cGMP” value (diabetic rats; [6]) of the same substance?
**A.** increased plasma and urine cGMP

**Q.** And the “urine cGMP” value (diabetic rats; [6])?
**A.** increased plasma and urine cGMP

**Q.** What about the “left ventricular hypertrophy (Left Ventricular Mass, LVMd)” value (diabetic rats; after four weeks, compared to diabetic rats treated with saline (FIG. 20)) of the same substance?
**A.** reduced left ventricular hypertrophy

**Q.** What about the blood glucose (diabetic rats; four weeks, compared to diabetic rats treated with saline (FIG. 16)) of the same substance?
**A.** reduced blood glucose

**Q.** What about the body weight (diabetic rats; four weeks, compared to diabetic rats treated with saline (FIG. 18)) of the same substance?
**A.** reduced body weight

**Q.** What about the “activation of GC-B receptors (cGMP levels)” value [1] of the same substance?
**A.** activated both the GC-A and GC-B receptors

**Q.** And the plasma insulin (normal dogs)?
**A.** increase in plasma insulin

**Q.** And the plasma glucose (normal dogs)?
**A.** reduction in plasma glucose

**Q.** And the “plasma cGMP” value (normal dogs)?
**A.** increase

**Q.** And the “activation of GC-A receptors (cGMP levels)” value [2]?
**A.** activated both the GC-A and GC-B receptors

**Q.** For “HGEGTFTSDSEAFIWLGR-amide (HGEGTFTSDSEAFIWLGR-NH2) [CRRL-090 ISP]”, which blood glucose levels ([3]; ALZET pumps subcutaneously 0.1 μg/kg/minute for one month starting two months after streptozotocin, compared to diabetic controls (FIG. 3)) is on record?
**A.** reduced blood glucose levels

**Q.** What about the plasma insulin levels ([3]; ALZET pumps subcutaneously 0.1 μg/kg/minute for one month, three months after streptozotocin, compared to diabetic controls (FIG. 4)) of the same substance?
**A.** increased plasma insulin levels

**Q.** What about the “glomerular filtration rate (GFR)” value ([3]; ALZET pumps subcutaneously 0.1 μg/kg/minute for one month, three months after streptozotocin, compared to diabetic controls (FIG. 5)) of the same substance?
**A.** increased glomerular filtration rate

**Q.** And the “left ventricular hypertrophy (LV/BW ratio)” value ([3]; ALZET pumps subcutaneously 0.1 μg/kg/minute for one month, three months after streptozotocin, compared to diabetic controls (FIG. 6))?
**A.** less left ventricular hypertrophy

**Q.** What about the blood glucose levels (normal rats [4]; compared to control rats that received saline (FIG. 1)) of the same substance?
**A.** lower blood glucose levels

**Q.** What about the plasma insulin (normal rats [4]; compared to control rats that received saline (FIG. 2)) of the same substance?
**A.** increased plasma insulin

**Q.** How did the “activation of GC-B receptors (cGMP levels)” value [1] turn out when “SPKMVQG-SGCFGRKMDRISSSSGLGCKVLRRHGEGTFTSDSEAFIWLGR [CRRL-092 ISP-NP]” was run?
**A.** but not the GC-B receptors

**Q.** And the plasma insulin (normal rats [5]; compared to placebo control rats (FIGS. 10, 12))?
**A.** increased plasma insulin

**Q.** And the blood glucose (normal rats [5]; compared to placebo control rats (FIGS. 11, 13))?
**A.** lower blood glucose

**Q.** And the plasma insulin (normal dogs)?
**A.** increase in plasma insulin

**Q.** What about the plasma glucose (normal dogs) of the same substance?
**A.** reduction in plasma glucose

**Q.** And the “plasma cGMP” value (normal dogs)?
**A.** increase

**Q.** What about the “activation of GC-A receptors (cGMP levels)” value [2] of the same substance?
**A.** activated the GC-A receptors
